Assay results: patent US6653306B1, “Epoxy-steroidal aldosterone antagonist and angiotensin II antagonist combination therapy” (G.D. Searle & Co., priority 1995, dated 2003)
Several values for one entry are separate records, joined by “and”; a condition that tells them apart may be missing. Equal values may be shown once. Read-outs that look alike come from different tables or passages of the source.

Columns and labels:
[1] = system: rabbit aortic rings; experiment: Assay B: In vitro vascular smooth muscle response for AII (antagonist activity, pA2); format: cell-based; conditions: two values per cell separated by / are separate determinations; for Kb: Oryctolagus cuniculus
Description: Assay B: In Vitro Vascular Smooth Muscle-response for AII
The compounds of the invention were tested for antagonist activity in rabbit aortic rings. Male New Zealand white rabbits (2-2.5 kg) were sacrificed using an overdose of pentobarbital and exsanguinated via the carotid arteries. The thoracic aorta was removed, cleaned of adherent fat and connective tissue and then cut into 3-mm ring segments. The endothelium was removed from the rings by gently sliding a rolled-up piece of filter paper into the vessel lumen. The rings were then mounted in a water-jacketed tissue bath, maintained at 37° C., between moveable and fixed ends of a stainless steel wire with the moveable end attached to an FT03 Grass transducer coupled to a Model 7D Grass Polygraph for recording isometric force responses. The bath was filled with 20 ml of oxygenated (95% oxygen/5% carbon dioxide) Krebs solution of the following composition (mM): 130 NaCl, […], 15 KCl, 1.2 NaH2PO4, 1.2 MgSO4, 2.5 CaCl2, and 11.4 glucose. The preparations were equilibrated for one hour before approximately one gram of passive tension was placed on the rings. Angiotensin II concentration-response curves were then recorded (3×10^−10 to 1×10^−5 M). Each concentration of AII was allowed to elicit its maximal contraction, and then AII was washed out repeatedly for 30 minutes before rechallenging with a higher concentration of AII. Aorta rings were exposed to the test antagonist at […] for 5 minutes before challenging with AII. Adjacent segments of the same aorta ring were used for all concentration-response curves in the presence or absence of the test antagonist. The effectiveness of the test compound was expressed in terms of pA2 values and were calculated according to H. O. Schild [Br. J. Pharmacol, Chemother., 2,189-206 (1947)]. The pA2 value is the concentration of the antagonist which increases the EC50 value for AII by a factor of two. Each test antagonist was evaluated in aorta rings from two rabbits.

[2] = target: angiotensin II AT1 receptor; experiment: Assay A: Angiotensin II binding activity (125I-AII displacement, rat uterine membrane preparation)
[3] = system: pressor response to AII; experiment: Assay C: In vivo intragastric pressor assay response for AII antagonists; set-up: species or system rat; conditions: intragastric, or intraduodenal for examples listed; for inhibition at 10 mg/kg / inhibition at 30 mg/kg / inhibition at 100 mg/kg / inhibition at 3 mg/kg: Rattus norvegicus; for Assay C Inhibition: dose cell empty (dose not given)
Description: Assay C: In Vivo Intragastric Pressor Assay Response for AII Antagonists
Male Sprague-Dawley rats weighing 225-300 grams were anesthetized with methohexital (30 mg/kg, i.p.) and catheters were implanted into the femoral artery and vein. The catheters were tunneled subcutaneously to exit dorsally, posterior to the head and between the scapulae. The catheters were filled with heparin (1000 units/ml of saline). The rats were returned to their cage and allowed regular rat chow and water ad libitum. After full recovery from surgery (3-4 days), rats were placed in Lucite holders and the arterial line was connected to a pressure transducer. Arterial pressure was recorded on a Gould polygraph (mmHg). Angiotensin II was administered as a 30 ng/kg bolus via the venous catheter delivered in a 50 μl volume with a 0.2 ml saline flush. The pressor response in mm Hg was measured by the differer.-:e from pre-injection arterial pressure to the maximum pressure achieved. The AII injection was repeated every 10 minutes until three consecutive injections yielded responses within 4 mmHg of each other. These three responses were then averaged and represented the control response to AII. The test compound was suspended in 0.5% methylcellulose in water and was administered by gavage. The volume administered was 2 ml/kg body weight. The standard dose was 3 mg/kg. Angiotensin II bolus injections were given at 30, 45, 60, 75, 120, 150, and 180 minutes after gavage. The pressor response to AII was measured at each time point. The rats were then returned to their cage for future testing. A minimum of 3 days was allowed between tests. Percent inhibition was calculated for each time point following gavage by the following formula:
[(Control Response—Response at time point)/Control Response]×100.

[4] = in vitro vascular smooth muscle response, read-out: Assay B pA2 (converted)

Structure (SMILES)	Kb [1, 4]	IC50 [2]	inhibition at 3 mg/kg ([3]; dose 3 mg/kg)	Assay C Duration ([3]; dose 3 mg/kg)	further results
CCCCc1nc(CCc2ccccc2)nn1Cc1ccc(-c2ccccc2-c2nnn[nH]2)cc1 [Compound 26]	0.148 nM	3.2 nM			inhibition at 10 mg/kg ([3]; dose 10 mg/kg): 50%; Assay C Duration ([3]; dose 10 mg/kg): >180 min
CCCCc1nc(C(=O)CCC)nn1Cc1ccc(-c2ccccc2-c2nnn[nH]2)cc1 [Compound 30]	18.6 nM	22 nM			inhibition at 30 mg/kg ([3]; dose 30 mg/kg): 50%; Assay C Duration ([3]; dose 30 mg/kg): >180 min
CCCCc1nn(CCCC)c(=O)n1Cc1ccc(-c2ccccc2C(=O)O)cc1 [Compound 78]	100 nM	101 nM			Assay C Inhibition [3]: 93%
CCCCc1nn(CCCc2ccccc2)c(=O)n1Cc1ccc(-c2ccccc2-c2nn[nH]n2)cc1 [Compound 81]	10 nM	18 nM			Assay C Inhibition [3]: 40%
CCCCc1nn(CC(O)c2ccccc2)c(=O)n1Cc1ccc(-c2ccccc2-c2nn[nH]n2)cc1 (stereo not shown) [Compound 83]	5.01 nM	3.6 nM			Assay C Inhibition [3]: 15%
CCCCc1nn(CC(=O)OC(C)(C)C)c(=O)n1Cc1ccc(-c2ccccc2-c2nn[nH]n2)cc1 [Compound 84]	79.4 nM	16 nM			Assay C Inhibition [3]: 20%
CCCCc1nn(CC(OCC(=O)O)c2ccccc2)c(=O)n1Cc1ccc(-c2ccccc2-c2nn[nH]n2)cc1 (stereo not shown) [Compound 91]	2.51 nM	30 nM			Assay C Inhibition [3]: 40%
CCCCc1nc2cnncc2n1Cc1ccc(-c2ccccc2C(=O)O)cc1 [Compound 108]	5010 nM	720 nM			inhibition at 100 mg/kg ([3]; dose 100 mg/kg): 45%; Assay C Duration ([3]; dose 100 mg/kg): 90 min
CCCCc1nc2c(O)nnc(O)c2n1Cc1ccc(-c2ccccc2C(=O)O)cc1 [Compound 109]	50.1 nM	250 nM			inhibition at 30 mg/kg ([3]; dose 30 mg/kg): 50%; Assay C Duration ([3]; dose 30 mg/kg): 30 min
CCCCc1nc2c(O)nnc(O)c2n1Cc1ccc(-c2ccccc2-c2nnn[nH]2)cc1 [Compound 111]	1 nM				inhibition at 30 mg/kg ([3]; dose 30 mg/kg): 87%
CCCCc1nc2c(CCC)nnc(O)c2n1Cc1ccc(-c2ccccc2-c2nnn[nH]2)cc1 [Compound 113]	3.98 nM				inhibition at 10 mg/kg ([3]; dose 10 mg/kg): 60%; Assay C Duration ([3]; dose 10 mg/kg): 180 min
CCCCc1nc2cnnc(O)c2n1Cc1ccc(-c2ccccc2-c2nnn[nH]2)cc1 [Compound 115]	6.31 nM		40%	>240 min	
CCCCc1nc2c(OC(=O)C(C)C)nnc(O)c2n1Cc1ccc(-c2ccccc2-c2nnn[nH]2)cc1 [Compound 119]	0.617 nM		20%	60 min	
CCCCc1nc2c(OC(=O)C3CCCCC3)nnc(O)c2n1Cc1ccc(-c2ccccc2-c2nnn[nH]2)cc1 [Compound 120]	0.891 nM				inhibition at 10 mg/kg ([3]; dose 10 mg/kg): 80%; Assay C Duration ([3]; dose 10 mg/kg): 240 min
CCCCc1nc2c(OC(=O)Cc3ccccc3)nnc(O)c2n1Cc1ccc(-c2ccccc2-c2nnn[nH]2)cc1 [Compound 124]			45%	>180 min	Kb ([1]; read-out: Assay B pA2, in vitro vascular smooth muscle response (converted)): 0.38 nM
CCCCc1cn(CCc2ccccc2)c(=O)n1Cc1ccc(-c2ccccc2-c2nnn[nH]2)cc1 [Compound 133]	2 nM	10 nM	20%	180 min	
CCCCc1cn(CCc2cccs2)c(=O)n1Cc1ccc(-c2ccccc2-c2nnn[nH]2)cc1 [Compound 134]	0.501 nM	22 nM	35%	180 min	
CCCCc1cn(-c2ccccc2Cl)c(=O)n1Cc1ccc(-c2ccccc2-c2nnn[nH]2)cc1 [Compound 135]	3.16 nM	16 nM	35%	>180 min	

Structure (SMILES)	Kb [1, 4]	IC50 [2]	inhibition at 3 mg/kg ([3]; dose 3 mg/kg)	Assay C Duration ([3]; dose 3 mg/kg)	further results
CCCCc1nc(CCCC)n(Cc2ccc(-n3c(Cl)cc(Cl)c3-c3nnn[nH]3)cc2)n1 [Compound 143]	20 nM	0.052 nM			Assay C Inhibition [3]: 85%
CCCCc1nc(Cl)c(Cl)n1Cc1ccc(-n2cccc2C(=O)O)cc1 [Compound 147]	2510 nM	5.8 nM	74%	5 to 10 min	
CCCCc1nc(Cl)c(CO)n1Cc1ccc(-n2cccc2C(=O)O)cc1 [Compound 148]	1580 nM		92%	20 to 30 min	
CCCCc1nc(Cc2ccc(-c3ccccc3-c3nnn[nH]3)nc2)n(CCCC)n1 [Compound 150]	9.33 nM	14 nM	25%	>180 min	
CCCCn1nc(CCC)nc1Cc1ccc(-c2ccccc2-c2nnn[nH]2)nc1 [Compound 152]	34.7 nM	150 nM	10%	140 min	
CCCCn1nc(-c2ccccc2Cl)nc1Cc1ccc(-c2ccccc2-c2nnn[nH]2)nc1 [Compound 158]	5.89 nM	54 nM	30%	>180 min	
CCCn1nc(C(F)(F)CCC)nc1Cc1ccc(-c2ccccc2-c2nnn[nH]2)nc1 [Compound 169]	16.6 nM	150 nM	15%	180 min	
CCCCn1nc(C(OCC)OCC)nc1Cc1ccc(-c2ccccc2-c2nnn[nH]2)nc1 [Compound 176]	20.4 nM	9.8 nM	10%	150 min	
CCCCc1nc(CCCC)n(Cc2ccc(-c3ccccc3-c3nnn[nH]3)cn2)n1 [Compound 239]	13.2 nM		20%		
CCCCc1nc(C(F)(F)CCC)nn1Cc1ccc(-c2ccccc2-c2nnn[nH]2)nc1 [Compound 247]	5.5 nM	9.4 nM	20%	180 min	
CCCCc1nc(C(F)(F)CCC)n(Cc2ccc(-c3ccccc3-c3nnn[nH]3)nc2)n1 [Compound 248]	20.9 nM	20 nM	10%		
CCCCc1nc(C(=O)N(C)C(C)(C)C)nn1Cc1ccc(-c2ccccc2-c2nnn[nH]2)nc1 [Compound 255]	24.5 nM	12 nM	20%	>180 min	
CCCCc1nc(-c2ccccc2C)n(Cc2ccc(-c3ccccc3-c3nnn[nH]3)nc2)n1 [Compound 262]	603 nM	530 nM			
CCCCc1cn(-c2c(C(C)C)cccc2C(C)C)c(=O)n1Cc1ccc(-c2ccccc2-c2nnn[nH]2)cc1 [Compound 277]	288 nM	190 nM			
CCCCc1cn(-c2c(C)cc(C(C)(C)C)cc2C)c(=O)n1Cc1ccc(-c2ccccc2-c2nnn[nH]2)cc1 [Compound 279]		270 nM			Assay B pA2 ([1]; in vitro vascular smooth muscle response): 8.06 and 8.25
CCCCc1nc(C)nn1Cc1ccc(-c2ccccc2C(=O)O)cc1 [Compound 280]	389 nM	480 nM			
CCCCc1nc(Cl)nn1Cc1ccc(-c2ccccc2C(=O)O)cc1 [compound 6]	282 nM				inhibition at 100 mg/kg ([3]; dose 100 mg/kg): 90%
CCCCc1nc(Cl)nn1Cc1ccc(-c2ccccc2-c2nnn[nH]2)cc1 [compound 7]	9.77 nM				inhibition at 30 mg/kg ([3]; dose 30 mg/kg): 90%
